# Measurements: US8450357B2, “Compositions comprising an aryl pyrazole and/or a formamidine, methods and uses thereof” (Merial Limited, priority 2008, dated 2013)
# Where two headings read alike, the source gives them in different places.
# Columns and labels:
# [1] = Crystal formation of amitraz formulations on storage or on the coat; assay type: physicochemical
# Description: Solutions of amitraz in certain solvents at high concentration result in the appearance of crystals over time. […] The solubility of amitraz in butyl acetate is lower then in anisole, MIK and ethyl benzoate. […] Additionally, when amitraz (25%) in butyl acetate formulations were stored at 50° C. in a chamber, they evaporated slightly. […] Again, lowering concentration to 20% and addition of co-solvents with higher solubility of amitraz avoided crystallization of amitraz. Unexpectedly, this addition of co-solvents caused the effects described below in Example 9.
# [2] = test system: adult Rhipicephalus sanguineus; test: Tick motility petri dish assay with imaging system, amitraz and fipronil; assay type: in vivo; conditions: for Geometric Mean of movement values for stimulated ticks: amitraz 0.32 ug/cm^2, fipronil serial dilutions 1.3-0.005 ug/cm^2; for motility of ticks over time: compound alone, compared to solvent control treated ticks
# Text: An imaging system was used for the automated analysis of tick motility in response to amitraz and fipronil treatments to remove the subjective interpretation of manual test evaluation. The study was designed to evaluate the affect of amitraz and fipronil alone and in combination, as compared to a control, on the motility of ticks over time.
# The motility of adult Rhipicephalus sanguineus was compared for amitraz-only, fipronil-only and the combination of fipronil and amitraz in a petri dish assay using the imaging system. The assay was run using a fixed dilution of amitraz (0.32 ug/cm^2), with serial dilutions of fipronil (1.3, 0.33, 0.08, 0.02, or 0.005 ug/cm^2) alone and in combination with the fixed dilution of amitraz. Six independent replications were conducted.
# A plate holding four petri dishes was custom made for the imaging system. At each time point the plate holding four petri dishes was placed on the imaging system and evaluated for motility. The set up of the plate for each evaluation is illustrated below in Table 21.
# For Dish A1, a volume of 625 μL of ethanol was used to treat the tops and 625 μL to treat the bottoms of the petri dish. All solutions were formulated in 100% ethanol. For Dish A2, a volume of 125 μL of the 25 ppm amitraz solution was used to treat the tops and 125 μL to treat the bottoms of the petri dish. For Dish B1, the top and bottom portions of the petri dishes were each treated with 500 μL of the 25 ppm solution of fipronil (serially diluted for each Plate 1-5) and 125 μL of the 25 ppm solution of amitraz. And for Dish B2, each of the top and bottom portions of the petri dishes were treated with 500 μL of the 25 ppm solution of fipronil (serially diluted for each Plate 1-5). After application of the corresponding solution to the petri dishes, the petri dishes were left open under a fan and allowed to dry for 1 hour. After drying, the dishes were infested with 10 adult Rhipicephalus sanguineus (supplied by Ecto Services, Inc. Henderson, N.C.). The ticks were left undisturbed for 1 hour before evaluation in the imaging system. Between evaluations ticks were maintained at approximately 21° C. and 60% RH.
# After the initial hour, each Plate 1-5 was sequentially placed into the imaging system for evaluation. Image processing calculates the change in movement of the ticks between each image. The value generated is equal to the movement in each petri dish during the image time. The ticks in each individual petri dish were then stimulated to move by breathing/exhaling into the plate. After stimulation, the plates were placed back into the imaging system for another evaluation to determine if the treatment affected the tick's ability to move. Image capture was repeated as in the pre-stimulated evaluation.
# Evaluations were made at 1, 4, 18, and 24 hours post infest (hpi) for 3 trials. For 3 trials the 4 hour evaluation was not done and for 3 trials the third evaluation was done at 21 to 22 hours. Raw data values were exported from the imaging system and comparative analysis of treatments over time was conducted.
# [3] = test system: adult Rhipicephalus sanguineus ticks; test: whole plant or invertebrate; assay type: in vivo; conditions: for mortality at 6.25 ppm / mortality at 12.5 ppm / mortality at 25 ppm / mortality at 0.0016 ppm / mortality at 0.006 ppm / mortality at 0.025 ppm / mortality at 0.1 ppm / mortality at 0.4 ppm / mortality at 1.6 ppm: Rhipicephalus sanguineus; for Synergistic Ratio (EC50): EC50 alone divided by EC50 with Amitraz (12.5 ppm); for Synergistic Ratio (EC90): EC90 alone divided by EC90 with Amitraz (12.5 ppm)
# Text: Dosages were serially diluted using this same formulation.
# ticks = test: Efficacy of combination of fipronil with amitraz against ticks on dogs; assay type: in vivo; conditions: 10 mg/kg BW of actives, topical
# Description: (§1) A fipronil formulation (commercial product) was prepared and stored separately from amitraz. Amitraz was formulated with the same carrier. Both parts, fipronil and amitraz in solvent(s) were stored separately and applied simultaneously. Amounts applied were calculated to keep dose at 10% (w/v) each in final formulation and 10 mg/kg BW of actives in amount applied.
# In brief, treatment was applied by parting the hair on the midline of the neck, between the base of the skull and the shoulder blades, and applying the formulation directly onto the skin.
# fleas = test: Efficacy of combination of fipronil and amitraz against fleas on dogs; assay type: in vivo; conditions: topical
# Description: as §1
# The amitraz and fipronil composition described in Example 10 were used in this study. […] Treatment was applied by parting the hair on the midline of the neck, between the base of the skull and the shoulder blades, and applying the formulation directly onto the skin.
# [4] = 6 h, read-out: 6 hour % Mortality Rep 1
# [5] = 6 h, read-out: 6 hour % Mortality Rep 2
# [6] = 6 h, read-out: 6 hour Avg. % Mortality
# [7] = 24 h, read-out: 24 hour % Mortality Rep 1
# [8] = 24 h, read-out: 24 hour % Mortality Rep 2
# [9] = 24 h, read-out: 24 hour Avg. % Mortality
# [10] = 48 h, read-out: 48 hour % Mortality Rep 1
# [11] = 48 h, read-out: 48 hour % Mortality Rep 2
# [12] = 48 h, read-out: 48 hour Avg. % Mortality
compound,measurement,setting,value
"Cc1ccc(/N=C/N(C)/C=N/c2ccc(C)cc2C)c(C)c1 [Amitraz, amitraz]",crystals upon cooling to room temperature,[1]; amitraz (25%) in butyl acetate stored at 50° C. in a chamber,precipitated crystals
same,crystals on the coat of animals,"[1]; amitraz (25%) in butyl acetate, clinical studies",produced white crystals
same,Geometric Mean of movement values for stimulated ticks,[2]; 21-22 hours post infestation,"30,300"
same,Geometric Mean of movement values for stimulated ticks,[2]; 1 hours post infestation,"56,900"
same,Geometric Mean of movement values for stimulated ticks,[2]; 4 hours post infestation,"44,300"
same,Geometric Mean of movement values for stimulated ticks,[2]; 18 hours post infestation,"33,200"
same,Geometric Mean of movement values for stimulated ticks,[2]; 24 hours post infestation,"34,300"
same,motility of ticks over time,[2],increase in motility
same,mortality at 6.25 ppm,[3]; [4],0%
same,mortality at 12.5 ppm,[3]; [4],0%
same,mortality at 25 ppm,[3]; [4],0%
same,mortality at 6.25 ppm,[3]; [5],0%
same,mortality at 12.5 ppm,[3]; [5],0%
same,mortality at 25 ppm,[3]; [5],0%
same,mortality at 6.25 ppm,[3]; [6],0%
same,mortality at 12.5 ppm,[3]; [6],0%
same,mortality at 25 ppm,[3]; [6],0%
same,mortality at 6.25 ppm,[3]; [7],0%
same,mortality at 12.5 ppm,[3]; [7],0%
same,mortality at 25 ppm,[3]; [7],0%
same,mortality at 6.25 ppm,[3]; [8],0%
same,mortality at 12.5 ppm,[3]; [8],0%
same,mortality at 25 ppm,[3]; [8],0%
same,mortality at 6.25 ppm,[3]; [9],0%
same,mortality at 12.5 ppm,[3]; [9],0%
same,mortality at 25 ppm,[3]; [9],0%
same,mortality at 6.25 ppm,[3]; [10],0%
same,mortality at 12.5 ppm,[3]; [10],0%
same,mortality at 25 ppm,[3]; [10],10%
same,mortality at 6.25 ppm,[3]; [11],0%
same,mortality at 12.5 ppm,[3]; [11],0%
same,mortality at 25 ppm,[3]; [11],10%
same,mortality at 6.25 ppm,[3]; [12],0%
same,mortality at 12.5 ppm,[3]; [12],0%
same,mortality at 25 ppm,[3]; [12],10%
same,Efficacy against ticks,ticks; 2 days after treatment,95.1%
same,Efficacy against ticks,ticks; 16 days after treatment,96.9%
same,Efficacy against ticks,ticks; 23 days after treatment,95.0%
same,Efficacy against ticks,ticks; 30 days after treatment,64.9%
same,Efficacy against ticks,ticks; 37 days after treatment,56.2%
same,Efficacy against ticks,ticks; 44 days after treatment,28.3%
same,Efficacy against fleas,fleas; 2 days after treatment,14.3%
same,Efficacy against fleas,fleas; 16 days after treatment,12.4%
same,Efficacy against fleas,fleas; 23 days after treatment,16.3%
same,Efficacy against fleas,fleas; 30 days after treatment,20.2%
same,Efficacy against fleas,fleas; 37 days after treatment,32.5%
same,Efficacy against fleas,fleas; 44 days after treatment,25.9%
"N#Cc1nn(-c2c(Cl)cc(C(F)(F)F)cc2Cl)c(N)c1[S+]([O-])C(F)(F)F (centres unmarked) [fipronil, 5-amino-3-cyano-1-(2,6-dichloro-4-trifluoromethylphenyl)-4-trifluoromethylsulfinylpyrazole]",Geometric Mean of movement values for stimulated ticks,[2]; 21-22 hours post infestation,"21,200"
same,Geometric Mean of movement values for stimulated ticks,[2]; 1 hours post infestation,"51,000"
same,Geometric Mean of movement values for stimulated ticks,[2]; 4 hours post infestation,"29,000"
same,Geometric Mean of movement values for stimulated ticks,[2]; 18 hours post infestation,"17,400"
same,Geometric Mean of movement values for stimulated ticks,[2]; 24 hours post infestation,"19,700"
same,motility of ticks over time,[2],reduction in motility
same,Synergistic Ratio (EC50),[3]; 6 hour Eval,14.7
same,Synergistic Ratio (EC90),[3]; 6 hour Eval,>6.76
same,Synergistic Ratio (EC50),[3]; 24 hour Eval,156.8
same,Synergistic Ratio (EC90),[3]; 24 hour Eval,>156
same,Synergistic Ratio (EC50),[3]; 48 hour Eval,56.4
same,Synergistic Ratio (EC90),[3]; 48 hour Eval,32.3
same,mortality at 0.0016 ppm,[3]; [4],0%
same,mortality at 0.006 ppm,[3]; [4],0%
same,mortality at 0.025 ppm,[3]; [4],0%
same,mortality at 0.1 ppm,[3]; [4],0%
same,mortality at 0.4 ppm,[3]; [4],0%
same,mortality at 1.6 ppm,[3]; [4],0%
same,mortality at 6.25 ppm,[3]; [4],0%
same,mortality at 25 ppm,[3]; [4],40%
same,mortality at 0.0016 ppm,[3]; [5],0%
same,mortality at 0.006 ppm,[3]; [5],0%
same,mortality at 0.025 ppm,[3]; [5],0%
same,mortality at 0.1 ppm,[3]; [5],0%
same,mortality at 0.4 ppm,[3]; [5],0%
same,mortality at 1.6 ppm,[3]; [5],0%
same,mortality at 6.25 ppm,[3]; [5],20%
same,mortality at 25 ppm,[3]; [5],60%
same,mortality at 0.0016 ppm,[3]; [6],0%
same,mortality at 0.006 ppm,[3]; [6],0%
same,mortality at 0.025 ppm,[3]; [6],0%
same,mortality at 0.1 ppm,[3]; [6],0%
same,mortality at 0.4 ppm,[3]; [6],0%
same,mortality at 1.6 ppm,[3]; [6],0%
same,mortality at 6.25 ppm,[3]; [6],10%
same,mortality at 25 ppm,[3]; [6],50%
same,mortality at 0.0016 ppm,[3]; [7],0%
same,mortality at 0.006 ppm,[3]; [7],0%
same,mortality at 0.025 ppm,[3]; [7],0%
same,mortality at 0.1 ppm,[3]; [7],0%
same,mortality at 0.4 ppm,[3]; [7],0%
same,mortality at 6.25 ppm,[3]; [7],90%
same,mortality at 25 ppm,[3]; [7],80%
same,mortality at 0.0016 ppm,[3]; [8],0%
same,mortality at 0.006 ppm,[3]; [8],0%
same,mortality at 0.025 ppm,[3]; [8],0%
same,mortality at 0.1 ppm,[3]; [8],0%
same,mortality at 0.4 ppm,[3]; [8],0%
same,mortality at 1.6 ppm,[3]; [8],40%
same,mortality at 6.25 ppm,[3]; [8],50%
same,mortality at 25 ppm,[3]; [8],90%
same,mortality at 0.0016 ppm,[3]; [9],0%
same,mortality at 0.006 ppm,[3]; [9],0%
same,mortality at 0.025 ppm,[3]; [9],0%
same,mortality at 0.1 ppm,[3]; [9],0%
same,mortality at 0.4 ppm,[3]; [9],0%
same,mortality at 1.6 ppm,[3]; [9],30%
same,mortality at 6.25 ppm,[3]; [9],70%
same,mortality at 25 ppm,[3]; [9],85%
same,mortality at 0.0016 ppm,[3]; [10],0%
same,mortality at 0.006 ppm,[3]; [10],0%
same,mortality at 0.025 ppm,[3]; [10],0%
same,mortality at 0.1 ppm,[3]; [10],0%
same,mortality at 0.4 ppm,[3]; [10],20%
same,mortality at 1.6 ppm,[3]; [10],50%
same,mortality at 6.25 ppm,[3]; [10],100%
same,mortality at 25 ppm,[3]; [10],100%
same,mortality at 0.0016 ppm,[3]; [11],0%
same,mortality at 0.006 ppm,[3]; [11],0%
same,mortality at 0.025 ppm,[3]; [11],0%
same,mortality at 0.1 ppm,[3]; [11],0%
same,mortality at 0.4 ppm,[3]; [11],20%
same,mortality at 1.6 ppm,[3]; [11],60%
same,mortality at 6.25 ppm,[3]; [11],100%
same,mortality at 25 ppm,[3]; [11],100%
same,mortality at 0.0016 ppm,[3]; [12],0%
same,mortality at 0.006 ppm,[3]; [12],0%
same,mortality at 0.025 ppm,[3]; [12],0%
same,mortality at 0.1 ppm,[3]; [12],0%
same,mortality at 0.4 ppm,[3]; [12],20%
same,mortality at 1.6 ppm,[3]; [12],55%
same,mortality at 6.25 ppm,[3]; [12],100%
same,mortality at 25 ppm,[3]; [12],100%
same,Efficacy against ticks,ticks; 2 days after treatment,90.9%
same,Efficacy against ticks,ticks; 16 days after treatment,100%
same,Efficacy against ticks,ticks; 23 days after treatment,99.3%
same,Efficacy against ticks,ticks; 30 days after treatment,53.9%
same,Efficacy against ticks,ticks; 37 days after treatment,43.9%
same,Efficacy against ticks,ticks; 44 days after treatment,37.9%
same,Efficacy against fleas,fleas; 2 days after treatment,100%
same,Efficacy against fleas,fleas; 16 days after treatment,100%
same,Efficacy against fleas,fleas; 23 days after treatment,100%
same,Efficacy against fleas,fleas; 30 days after treatment,94.4%
same,Efficacy against fleas,fleas; 37 days after treatment,63.4%
same,Efficacy against fleas,fleas; 44 days after treatment,55.9%
same,Efficacy against fleas,fleas; 51 days after treatment,74.7%
